Data set [1] concerns HT-29 clone 34 cells. The experiment in a line: HT-29 clone 34 cell viability (ATP, Cell Titer-Glo). The format is cell-based, human. As to the method:
10000 cells/well were seeded in 200 μl of culture medium in flat bottom white border 96 well plates (Greiner Bio One, Kremsmuenster, Austria). […] 20 μl of experimental medium containing (or not) LPS 055:B5 or rhTNF-α (100 and 10 ng/ml final, respectively) was added and the plates were incubated for 24 hours at 37° C. in a 5% CO2/air incubator.
Cell viability was determined by measuring ATP using Cell Titer-Glo kit (Promega). Briefly, remaining adherent HT-29 clone 34 cells were incubated for 10 min at room temperature under horizontal shaking (250 rpm) with 120 μl of Cell Titer-Glo reagent (pre-diluted twice in 1×PBS) and the luminescence was measured using Polarstar microplate reader (BMG, Offenburg, Germany) for 1000 ms with a gain value set to 3500.

Data set [2] relates to NF-κB. The experiment in a line: NF-κB activity in HT-29 clone 34 cells (SEAP reporter and IL-8). The format is cell-based, human. The procedure:
Two in-vitro systems were used: human colonic cells (HT-29 clone 34) and human monocytes/macrophages (THP-1 blue cells). The human colonic adenocarcinoma HT-29 clone 34 cell line (passage 42-50) are adherent cells stably transfected with a NF-κB/SEAP reporter plasmid. They were cultured in DMEM high glucose (4.5 g/L) (Invitrogen) containing 1% of stable L-glutamine and supplemented with 10% of heat inactivated (one hour at 56° C.) Foetal Calf Serum (FCS) (Bioconcept, Allschwil, Switzerland), 1% of Penicillin/Streptomycin (Sigma) and 500 μg/ml of Geneticin (PAA, Pasching, Austria) at 37° C. in a 5% CO2/air incubator. Culture medium was renewed every two days until the cell monolayer reached ˜90% confluence. Cells were sub-cultured using 1× Trypsin/EDTA (Sigma). 10000 cells/well were seeded in 200 μl of culture medium in flat bottom white border 96 well plates (Greiner Bio One, Kremsmuenster, Austria). […] Cell culture supernatants were then collected for measurement of NF-κB activity (determination of secreted alkaline phosphatase and IL-8 production) using Phosphalight (Applied Biosystems) and IL-8 singleplex (Meso Scale, Gaithersburg, Md.) kits, respectively.

The subject of data set [3] is Glutathione reductase (Gsr). The experiment in a line: mRNA expression in hepatocytes (qPCR): glutathione reductase. The note with it: liver cells (hepatocytes). The format is cell-based, rat. The procedure: (§1) Hepatocytes were isolated from Sprague-Dawley male rats (190-240 g) by liver perfusion. […] After overnight incubation, the medium was removed and 2.5 ml of fresh medium containing the test substances was added. The dishes were incubated for 24 h at 37° C. in a 5% CO2/air incubator. Cell lysates for the RNA extraction were obtained by adding 400 μl of RNA lysis buffer (RA-1 with 1% v/v β-mercaptoethanol) to the cells and vigorously mixed (vortex). Total RNA was extracted from the cell lysates according manufacturer's instructions (Nucleospin RNA2 kit, Macherey-Nagel, Düren, Germany) with minor changes: 20 min of DNASE treatment and 60 μl of elution volume. Total RNAs were quantified using Ribogren kit (Molecular probes) and the quality was evaluated by capillary electrophoresis using Bionalyzer (Agilent). Reverse transcription reactions were performed with the Multiscribe reverse transcriptase enzyme in the presence of random hexamers primers (Reverse Transcription Reagent from Applied Biosystems). Gene expression quantification was performed using pre-designed TaqMan probes (Applied Biosystems). Each qPCR reaction was done in technical duplicates on 50 ng of cDNA. The arithmetic mean of two housekeeping genes (GAPDH and β-Actin) was used for normalization. The mRNA gene expression calculations are based on the ΔΔCt method: […] [table]
For orientation: In qPCR the cycle at which signal appears reflects the starting amount.

Data set [4] deals with Nrf2. Put plainly: Nrf2 reporter assay (ARE-luciferase, AREc32 cells). It is filed as cell-based. Conditions: 24 h, dose range 0 to 200 μM (FIG. 3). On the technique in general: In a reporter assay the amount or activity of a reporter protein is the signal.
Protocol: Activation of Nrf2 was measured using an Nrf2 reporter assay. This assay is based on the AREc32 cell line, from CRX biosciences (Dundee, Scotland), a stably transfected MCF7 (breast adenocarcinoma) cell line that contains a luciferase gene construct under the control of the ARE. […] Luciferase activity is determined using a luciferase kit form Promega (Madison, Wis.). The luciferase activity is proportional to the activation of Nrf2.
For each run the luciferase activities, measured in Relative Light Units (RLU), of all the wells were normalized with the mean of the luciferase activity of the cells only of all the plates. Among all the samples tested the normalization procedure was found not to affect the data and this observation permits the comparison of samples measured in different runs.
For each sample the Nrf2 activation was calculated as follows: […]
The luciferase content per sample allows a semi quantification of the Nrf2 activation by reflecting the amount of the Nrf2 activating molecule. […]
The subject of data set [5] is Glutamate cysteine ligase, catalytic subunit (Gclc). Put plainly: mRNA expression in hepatocytes (qPCR): glutamate cysteine ligase catalytic subunit. The format is cell-based. Conditions: rat hepatocytes, 24 h, dose range (FIG. 5). The procedure: as §1
The subject of data set [6] is THP-1 blue cells. Put plainly: THP-1 blue cell viability (Cell Titer-Glo). The format is cell-based, human. As to the method: 200000 cells/well were seeded in 100 μl of culture medium in 96 well flat bottom transparent plates. […] 20 μl of culture media containing (or not) LPS 055:B5 (Sigma) (100 ng/ml final) was added and the plates were incubated for 16 hours at 37° C. in a 5% CO2/air incubator.
Cell culture supernatants were carefully transferred to 96 well-plates for NF-κB activity measurement which is proportional to the level of secreted alkaline phosphatase. Briefly, 100 μl of supernatants were mixed with 150 μl of QuantiBlue (Invivogen) in a 96 well-plates incubated for 3 h at 37° C. before OD measurements at 620 nm with Sunrise microplate reader (Tecan, Mannedorf, Switzerland). Cell viability was determined using Cell Titer-Glo kit as described above.

Data set [7] concerns hepatocytes. Put plainly: Hepatocyte viability (LDH measurement). The format is cell-based. The note with it: rat hepatocytes, 24 h. As to the method: Hepatocytes were isolated from Sprague-Dawley male rats (190-240 g) by liver perfusion. Cells were seeded at 2500000 cells/dish (6 cm) in 2.5 ml of Williams'E medium supplemented with 2 mM L-glutamine, 10 mM Hepes (Sigma), 1% ITS+, 1% Penicillin/Streptomycin (Sigma) and 25 nM Dexamethasone (Sigma). After overnight incubation, the medium was removed and 2.5 ml of fresh medium containing the test substances was added. The dishes were incubated for 24 h at 37° C. in a 5% CO2/air incubator.
At the end of the incubation, the cell supernatants were harvested for LDH (lactate dehydrogenase) measurement, which is an indicator of cell viability. Cells were washed once with 2.5 ml of cold PBS 1× then detached from the Petri dishes by scraping. Cells were then transferred to 1.5 ml Eppendorf tubes which were centrifuged for 1 min at 4° C. at 7000 g.

The subject of data set [8] is Heme oxygenase 1 (HO-1). Put plainly: mRNA expression in hepatocytes (qPCR): heme oxygenase 1. It is filed as cell-based. Conditions: rat hepatocytes, 24 h, dose range (FIG. 5). The procedure:
as §1

In data set [9] the test system is Glutathione peroxidase 1 (Gpx1). Put plainly: mRNA expression in hepatocytes (qPCR): glutathione peroxidase 1. The format is cell-based. Conditions: rat hepatocytes, 24 h, dose range (FIG. 5). As to the method: as §1
Data set [10] relates to Glutathione-S-transferase, pi 1 (Gstp1). The experiment in a line: mRNA expression in hepatocytes (qPCR): glutathione-S-transferase. The format is cell-based. Conditions: rat hepatocytes, 24 h, dose range (FIG. 5). The procedure: as §1
For data set [11], the system named is UDP-glucuronosyltransferase (UGT). Put plainly: mRNA expression in hepatocytes (qPCR): UDP-glucuronosyltransferase. It is filed as cell-based. Conditions: rat hepatocytes, 24 h, dose range (FIG. 5). The procedure: as §1
Data set [12] has as its system AREc32 cells. The experiment in a line: AREc32 cell viability (ATP quantification, Cell Titer-Glo). The note with it: 24 h. It is filed as cell-based. The procedure:
To determine the Nrf2 activation the samples were tested on AREc32 cells (seeded in 96 well plates) using 10 independent dilutions (1/2, 1/4, 1/6, 1/10, 1/15, 1/20, 1/25, 1/30, 1/40 and 1/50) and incubated for 24 hours at 37° C. in a 5% CO2/air incubator. The luciferase activity and the cell viability (ATP measurements) were determined using the Luciferase and Cell Titer-Glo kits from Promega.
The cell viability was also measured using a cell Titer-Glo kit (ATP quantification).
(In general: ATP-based viability assays read luminescence as a measure of living cells.)

For data set [13], the system named is NAD(P)H dehydrogenase quinone (Nqo1). Put plainly: mRNA expression in hepatocytes (qPCR): NAD(P)H dehydrogenase quinone. It is filed as cell-based. The note with it: rat hepatocytes, 24 h, dose range (FIG. 5). As to the method: as §1
The test system of data set [14] is Glutathione peroxidase 2 (Gpx2). Put plainly: mRNA expression in hepatocytes (qPCR): glutathione peroxidase 2. The format is cell-based. Conditions: rat hepatocytes, 24 h, dose range (FIG. 5). As to the method: as §1

On to `CC(=O)/C=C/C(=O)O` [4-oxo-2-pentenoic acid], for which the “doses showing a decrease in cell viability” value in [1] was greater than 50 µM. Besides, the “dose giving the best inhibition of NF-κB activity (SEAP and IL-8)” value in data set [2] (HT-29 clone 34 cells stimulated with LPS) was determined as 50 µM. In [2] (HT-29 clone 34 cells stimulated with LPS (100 ng/ml), 4 h pre-incubation, 24 h), the “inhibition of NF-κB activity (SEAP and IL-8 secretion)” value is “inhibits NF-κB activity in a dose dependent manner”. Moreover, the “NF-κB activity (SEAP or IL-8) in the absence of LPS” value in data set [2] (HT-29 clone 34 cells, no LPS, doses tested 3 to 400 μM) was “no NF-κB activity was observed”. In data set [3], the “gene expression of glutathione reductase” value is recorded as “activated gene expression”. Besides, the Nrf2 activation entry in data set [4] was “strongly activate Nrf2 in a dose dependent manner”. Moreover, the “mRNA expression of glutamate cysteine ligase catalytic subunit” value in data set [5] is given as “increased”. The “doses toxic to cells” value in [6] is recorded as “higher than 75 μM”. Moreover, in data set [7], the “cell viability (LDH measurements)” value is listed as “not affected”. Moreover, the “mRNA expression of heme oxygenase 1” value in data set [8] is given as “increased”. Besides, the “mRNA expression of glutathione peroxidase 1” value in data set [9] is “not affected”. Further, the “mRNA expression of glutathione-S-transferase” value in data set [10] is “increased”. Also, the “mRNA expression of UDP-glucuronosyltransferase (UGT)” value in data set [11] is recorded as “increased”. The “doses at which viability of AREc32 cells was not affected” value in data set [12] was “lower than 70 μM”. In addition, the “mRNA expression of NAD(P)H dehydrogenase quinone” value in data set [13] was “increased”. Further, the “mRNA expression of glutathione peroxidase 2” value in [14] is recorded as “not affected”.
